Reference: patent US6635668B1, “Imidazoline receptor binding compounds” (The University of North Carolina at Chapel Hill, priority 1998, dated 2003)
“Also recorded” adds a separate entry of the source. Where a name gives a salt, the structure may show the parent alone.

What was measured:
imidazoline I2 sites [1] = assay: Competition binding of 5 nM [3H]idazoxan to rat liver membranes; conditions: for Ki: 5 nM [3H]idazoxan (Kd 14 ± 2 nM), mean ± SD, compounds 4 and 8 mean ± 95% confidence intervals; for Hill Slope: inhibition of [3H]idazoxan binding
Method: Membrane preparation. Membranes were prepared in accordance with known techniques (R. Zonnenchein et al., Eur. J. Pharmacol. 190, 203-215 (1990)). […] The livers were weighed and minced with scissors before being homogenized at 4° C. in solution A (0.25 M sucrose containing 0.1 mM phenylmethyl sulfonyl fluoride 1:10 v/v) for 1 min using a Biospec homogenizer (Bartlesville, Okla., USA). The homogenate was centrifuged at 600×g for 10 min at 4° C. The resulting pellet was washed with solution A, discarded and the supernatant fractions were combined and centrifuged at 12,000×g for 30 min. This pellet was washed then resuspended in cold buffer B (50 mM Tris/HCl pH 7.4). Using a Bio-Rad (Hercules, Calif., USA) assay kit, the protein concentration was determined using bovine serum albumin as the standard according to the assay of Bradford et al. (Bradford, M. M., 1976. Anal. Biochem. 72, 248-254.). The preparation was stored at −80° C. at a concentration of 20 mg protein/ml. Competition binding studies. Competition experiments were performed in 1 ml buffer B containing 5 nM [^3H]idazoxan. […] In all experiments, bound and free radioligand were separated by vacuum filtration through Whatman GF/C filters and washed with 2×10 ml cold buffer B. Radioactivity on filters was determined by liquid scintillation spectroscopy using a Packard Tri-Carb 2100TR. […] Data analysis. Binding analyses, statistics and graphics were performed using Prism 2.01 (Graphpad Software, Inc., San Diego, Calif., USA). […] The calculated log of the octanol:water partition coefficient (ClogP) was calculated using MedChem Software 3.5 (Daylight Chemical Information Systems, New Orleans, La., USA).

Pneumocystis carinii = assay: Anti-Pneumocystis carinii activity, P. carinii pneumonia in the rat; type: in vivo; conditions: for anti-P. carinii activity (in words): rat, compared with pentamidine
Method: Anti-Pneumocystis carinii activity. Induction, treatment and evaluation of P. carinii pneumonia in the rat was carried out according to methods described previously (Jones, S. K. et al., Antimicrob. Agents Chemother. 34, 1026-1030 (1990)). To summarize the scoring procedure, the mean histologic scores were determined by two examiners using a blinded protocol. P. carinii cysts were counted in the stained lung sections and assigned the following values; 0.5—less than 10 cysts counted per two fully examined sections; 1—scattered cysts with less than 10% of the lung tissue involved; 2—scattered cysts with limited intense focal involvement and 10 to 25% of lung tissue involved; 3—scattered cysts with numerous intense areas of focal involvement and 26 to 50% of lung tissue involved; 4—cysts found throughout the tissue with numerous intense focal areas of involvement having greater than 50% of lung tissue involved.

imidazoline receptor = assay: Imidazoline receptor binding (Tables 2 and 3); conditions: Table 2
imidazoline I2 sites [2] = assay: [3H]Idazoxan saturation binding in rat liver membranes; conditions: 22° C., 45 min, read-out: Kd for saturable binding
Method: Membrane preparation. Membranes were prepared in accordance with known techniques (R. Zonnenchein et al., Eur. J. Pharmacol. 190, 203-215 (1990)). Briefly, male Sprague-Dawley rats (Hilltop, Scottsdale, Pa., USA) weighing approximately 250-300 g were decapitated, their livers rapidly removed and immediately placed into 0.25 M cold sucrose solution. The livers were weighed and minced with scissors before being homogenized at 4° C. in solution A (0.25 M sucrose containing 0.1 mM phenylmethyl sulfonyl fluoride 1:10 v/v) for 1 min using a Biospec homogenizer (Bartlesville, Okla., USA). The homogenate was centrifuged at 600×g for 10 min at 4° C. The resulting pellet was washed with solution A, discarded and the supernatant fractions were combined and centrifuged at 12,000×g for 30 min. This pellet was washed then resuspended in cold buffer B (50 mM Tris/HCl pH 7.4). Using a Bio-Rad (Hercules, Calif., USA) assay kit, the protein concentration was determined using bovine serum albumin as the standard according to the assay of Bradford et al. (Bradford, M. M., 1976. Anal. Biochem. 72, 248-254.). The preparation was stored at −80° C. at a concentration of 20 mg protein/ml. Saturation binding studies. Binding studies were performed in triplicate in 1 ml buffer B containing [^3H]idazoxan (0.1-50 nM). […]

SMILES | Ki (imidazoline I2 sites [1]) [µM] | Hill Slope (imidazoline I2 sites [1]) | Ki (imidazoline receptor) [µM] | further results
Cc1ccc(N(CC2=NCCN2)c2cccc(O)c2)cc1 [Phentolamine, phentolamine, reference compound] | > 5 |  |  | 
c1cc(C2=NCCN2)ccc1OCCCCCOc1ccc(C2=NCCN2)cc1 [Compound 3] | 0.0043 ± 0.00109 | −0.8 |  | anti-P. carinii activity (in words) (Pneumocystis carinii): greater than pentamidine
N=C(N)c1ccc(-c2ccc(-c3ccc(C(=N)N)cc3)o2)cc1 [DB 75] |  |  | 0.653 | 
N=C(N)c1ccc(-c2ccc(-c3ccc(C(=N)N)cc3)s2)cc1 [DB 351] |  |  | 0.111 | 
N=C(N)c1ccc(OCCCCCCOc2ccc(C(=N)N)cc2)cc1 [Compound 2] | 0.0032 ± 0.00036 | −1.2 |  | anti-P. carinii activity (in words) (Pneumocystis carinii): greater than pentamidine
N=C(N)c1ccc(OCCCCCOc2ccc([N+](=O)[O-])cc2)cc1 [Compound 8] | 0.062 ± 0.025 | −0.8 |  | 
N=C(N)c1ccc2[nH]c(-c3ccc4[nH]c(-c5ccc(O)cc5)nc4c3)nc2c1 [DB 183] |  |  | 65.6 | 
c1cc(-c2ccc(-c3ccc(C4=NCCN4)cc3)o2)ccc1C1=NCCN1 [DB 60] |  |  | 0.63 | 
N=C(N)c1ccc(OCCCOc2ccc(C(=N)N)cc2)cc1 [Compound 7] |  | −0.8 |  | 
N=C(N)c1ccccc1 [Compound 12, benzamidine] | 0.58 ± 0.0613 | −0.8 |  | 
N=C(N)c1ccc(OCCCCCO)cc1 [Compound 9] | 0.319 ± 0.0395 | −0.8 |  | anti-P. carinii activity (in words) (Pneumocystis carinii): no activity at all
COc1cc(C(=N)N)ccc1OCCCOc1ccc(C(=N)N)cc1OC [Compound 6] | ~3.5 | −0.9 |  | anti-P. carinii activity (in words) (Pneumocystis carinii): greater than pentamidine; also recorded: equally effective
c1ccc(C2CC2)c(OCC2=NCCN2)c1 [Cirazoline, cirazoline, reference compound] | 0.003 ± 0.0004 |  |  | 
c1cc2[nH]c(CCCCc3nc4cc(C5=NCCN5)ccc4[nH]3)nc2cc1C1=NCCN1 [BIBB] |  |  | 44.8 | 
N=C(N)c1ccc2nc(C3=CCC=C(c4nc5ccc(C(=N)N)cc5[nH]4)N3)[nH]c2c1 [DB 205] |  |  | 347 | 
[3H]c1cc2c(cc1[3H])OC(C1=NCCN1)CO2 (stereo not drawn) [[^3H]idazoxan, (1,4-[6,7-^3H]-benzodioxan-2-yl)-2-imidazoline hydrochloride] |  |  |  | Kd (imidazoline I2 sites [2]): 0.014 ± 0.002 µM
COc1ccc(C(=N)N)cc1 [Compound 10, 4-methoxybenzamidine] | 0.228 ± 0.0365 | −0.8 |  | 
N=C(N)c1ccc2[nH]c(CCCCc3nc4cc(C(=N)N)ccc4[nH]3)nc2c1 [BABB] |  |  | 5.53 | 
CC(C)NC(=N)c1ccc(-c2ccc(-c3ccc(C(=N)NC(C)C)cc3)o2)cc1 [DB 181] |  |  | 5.5 | 
N=C(N)c1ccc2[nH]c(Cc3nc4cc(C(=N)N)ccc4[nH]3)nc2c1 [BABIM] |  |  | 7.51 | 
N=C(N)c1ccc(OCCCCOc2ccc(C(=N)N)cc2)cc1 [Compound 4] |  | −0.8 |  | anti-P. carinii activity (in words) (Pneumocystis carinii): greater than pentamidine
N=C(N)c1cccc(OCCCCCOc2cccc(C(=N)N)c2)c1 [001 KAO 011] |  |  | 0.158 | 
N=C(N)c1ccc2c(c1)[nH]c1cc(C(=N)N)ccc12 [DAP 092] |  |  | 18.1 | 
N=C(N)c1ccc2[nH]c3ccc(C(=N)N)cc3c2c1 [003 KAO 111] |  |  | 44.7 | 
c1cc(-c2ccc(-c3ccc(C4=NCCCN4)cc3)o2)ccc1C1=NCCCN1 [DB 103] |  |  | 0.236 | 
N=C(N)c1ccc(OCCCCCOc2ccc(C(=N)N)cc2)cc1 [Compound 1, pentamidine, reference compound] | 0.0014 ± 0.00022 | −0.8 |  | mean histologic score (Pneumocystis carinii; rat lung sections, saline control 3.8 out of a possible 4.0): 1.3
N=C(N)c1ccc(O)cc1 [Compound 11, 4-hydroxybenzamidine] | ~30 | −0.3 |  | anti-P. carinii activity (in words) (Pneumocystis carinii): no activity at all
N=C(N)c1ccc(-c2ccc(-c3ccc(C(=N)N)cc3)[nH]2)cc1 [DB 262] |  |  | 3.79 | 
N=C(NC1CCCC1)c1ccc(-c2ccc(-c3ccc(C(=N)NC4CCCC4)cc3)o2)cc1 [DB 244] |  |  | 6.75 | 
COc1cc(C2=NCCN2)ccc1OCCCOc1ccc(C2=NCCN2)cc1OC [Compound 5] | 0.0501 ± 0.00106 | −0.9 |  | anti-P. carinii activity (in words) (Pneumocystis carinii): greater than pentamidine; also recorded: equally effective
